The nature of assay [1]: otoacoustic emission (DP-gram) in rats after 14 days i.p. infusion. Format: in vivo, rat. The protocol: In this example, rats were given 8 nmol/kg/h of Compound 1 intraperitoneally for 14 days via Alzet osmotic pumps. Otoacoustic emissions were measured before treatment and at the end of treatment. Urine samples were collected during infusion, and the natriuretic effect of Compound 1 was measured by flame spectroscopy.
18 female Sprague-Dawley rats weighing 250 g each were divided into two groups. In total, 8 control animals received vehicle and 10 animals received COMPOUND 1. During the experiment the animals had free access to food and water.
Prior to the study COMPOUND 1 was dissolved in 50 mM phosphate buffer pH 4.0 containing 1% BSA and loaded into Alzet osmotic pumps. The pumps were then surgically inserted into the peritoneum of the rats administering 8 nmol/kg/h for 14 days. After insertion of the pumps the animals were placed in metabolic cages for a week, and samples of urine were collected every 24 hrs from Day 0 through Day 6.
The rats were all tested before the start of the study and at the end of the study. […]
The only DPOAE measured were the amplitude of cubic distortion product 2f1-f2, and always with the level of f1 (L1) 10 dB higher than the level of f2 (L2=L1-10 dB). The output of the ER-10B microphone was feed to a B&K (Nexus) amplifier and analysed on an HP 35670A spectrum. […]

Assay [2] concerns the target T1, guanylyl cyclase (GC-C) receptor (Homo sapiens, UniProt P25092).
T1 construct: stimulation of cGMP in T84 cell cultures may be used as an efficacy assay; endogenous in cells; host or cells: T84 (human colon carcinoma cell line)
The experiment in a line: cGMP-efficacy on T84 cells (stimulation of cGMP formation). Format: cell-based. Conditions: cGMP formation in T84 cells; for EC50: efficacy assay of Example 1. How it is done:
T84 cells are grown to near confluence in DMEM medium and Ham's F-12 medium (1:1) supplemented with 5% Foetal Calf Serum (FCS), […] in 175 cm^2 culture flasks (Nunc) at 37° C., 5% CO2 and 100% humidity. Cells are harvested in ice-cold PBS and centrifuged at 100×G for 10 min at 4° C. The sedimented cells are lysed in 2.5 ml dist. H2O/culture flask at 0° C. for 30 min and centrifuged at 50,000×G 4° C. for 45 min. The membrane pellet is taken up in binding buffer (50 mM HEPES, 1 mM EDTA, 10 mM MgCl2, pH 7.4) supplemented with 10% sucrose and stored at −80° C. until use.
For stimulation of cGMP formation, cells are seeded in 96-well microtiter plates (Nunc) at a density of 2500 cells/well (˜7576 cells/cm^2) and grown for 3 days before use under the same culture conditions mentioned above.
On the day of analysis growth medium is removed and the T84 cells are washed twice in Dulbeccos Phosphate Buffered Saline™ (D-PBS) containing 6 mM glucose at 37° C. Cells are then incubated at 37° C. for 40 min in the same medium supplemented with 2 mM IBMX (a phosphodiesterase inhibitor) and increasing concentrations of test compounds. The reaction is stopped by addition of ice-cold 20 μl 0.50 M HCl and incubation on ice for further 20 min. 20 μl of the acid extract is used for determination of cGMP by the FlashPlate™ technique and another 20 μl is used for determination of protein content.
Data from the cGMP experiments are treated in an analogueous way and fitted to:
f=(cGMPmax−cGMPbasic)*s/(s+EC50)+cGMPbasic
where cGMPmax is maximal obtainable cGMP and cGMPbasic is the basic level of cellular cGMP. EC50 is the concentration giving half maximum effect and s the concentration of test compound. […]

Assay [3] in a line: standard diuresis assay / renal clearance in conscious rats with arterial pressure and heart rate recording. In kind it is in vivo, rat. How it is done: Male Sprague-Dawley rats weighing 350-370 g (M&B, Denmark) were anaesthetized with a subcutaneous injection of 2 ml/kg of a 1:1 mixture of Hypnorm® (fentanyl citrate 0.315 mg/ml and fluanisone 10 mg/ml) and Dormicum® (midazolam 5 mg/ml) diluted 1:1 in distilled water. Permanent catheters were inserted into the femoral vein and artery. The i.v. line is used for i.v. infusion and the arterial line is used for continuous intra-arterial blood pressure recording and withdrawal of blood samples. A permanent supra-pubic catheter was inserted into the urinary bladder, which allowed fractionated urine collection and determination of urine flow rate. Animals were allowed about one week of recovery before they were used for experiments.
On the day of the experiment, the rat was placed in a lucid restrainer. […] To obtain a stable urine production under these conditions, the rat was slightly water loaded by i.v. infusion of a hypotonic glucose solution (150 mM glucose; 100 μl/min the first 15 min, then 25 μl/min throughout the experiment). The arterial line was connected to a pressure transducer (Baxter Truware: PX-260 Uden, Netherlands) and the pulsatile arterial blood pressure was amplified (×1.000-10.000) via a Hugo Sachs Electronic Tranducer Amplifier Module model 705/1. The analogue signal was digitalized via a 12 bit data acquisition board (Data Translation model DT321) and sampled at 1000 Hz using the Notocord HEM version 4 software for Windows NT. The systolic peak pressure triggered a software heart rate module that calculated heart rate beat-to-beat.
After a 60 minutes equilibration period, fractionated collection of urine was started (t=0). After 4 control periods (4×15 minutes), a bolus injection of Mouse-Guanylin-Asp—OH, 10 μmol/kg i.v was administered and collection of urine was collected in 15 minute periods for 3 hours (period […]). Urine volume was measured gravimetrically. The urine samples were stored at −20° C. until further analysis. Urine was analysed for sodium and potassium using a using a flame spectrophotometer (Instrumentation Laboratory, model IL 943).

The target of assay [4] is T1, guanylyl cyclase (GC-C) receptor. The conditions noted are these: T84 cells, reported values; cited from earlier work.
For assay [5] the following is noted: rat, in vivo; cited from earlier work.

Read-outs that look alike come from different tables or passages of the source. Bridge positions count the residues as written; N and C are the ends. Square brackets hold non-standard residues; d marks the D form. Ends that are not written are not given here. Peptide text beside a SMILES is read from it. 2Nal = N[C@@H](Cc1ccc2ccccc2c1)C(=O)O

T1 sequence (P25092 24-1073): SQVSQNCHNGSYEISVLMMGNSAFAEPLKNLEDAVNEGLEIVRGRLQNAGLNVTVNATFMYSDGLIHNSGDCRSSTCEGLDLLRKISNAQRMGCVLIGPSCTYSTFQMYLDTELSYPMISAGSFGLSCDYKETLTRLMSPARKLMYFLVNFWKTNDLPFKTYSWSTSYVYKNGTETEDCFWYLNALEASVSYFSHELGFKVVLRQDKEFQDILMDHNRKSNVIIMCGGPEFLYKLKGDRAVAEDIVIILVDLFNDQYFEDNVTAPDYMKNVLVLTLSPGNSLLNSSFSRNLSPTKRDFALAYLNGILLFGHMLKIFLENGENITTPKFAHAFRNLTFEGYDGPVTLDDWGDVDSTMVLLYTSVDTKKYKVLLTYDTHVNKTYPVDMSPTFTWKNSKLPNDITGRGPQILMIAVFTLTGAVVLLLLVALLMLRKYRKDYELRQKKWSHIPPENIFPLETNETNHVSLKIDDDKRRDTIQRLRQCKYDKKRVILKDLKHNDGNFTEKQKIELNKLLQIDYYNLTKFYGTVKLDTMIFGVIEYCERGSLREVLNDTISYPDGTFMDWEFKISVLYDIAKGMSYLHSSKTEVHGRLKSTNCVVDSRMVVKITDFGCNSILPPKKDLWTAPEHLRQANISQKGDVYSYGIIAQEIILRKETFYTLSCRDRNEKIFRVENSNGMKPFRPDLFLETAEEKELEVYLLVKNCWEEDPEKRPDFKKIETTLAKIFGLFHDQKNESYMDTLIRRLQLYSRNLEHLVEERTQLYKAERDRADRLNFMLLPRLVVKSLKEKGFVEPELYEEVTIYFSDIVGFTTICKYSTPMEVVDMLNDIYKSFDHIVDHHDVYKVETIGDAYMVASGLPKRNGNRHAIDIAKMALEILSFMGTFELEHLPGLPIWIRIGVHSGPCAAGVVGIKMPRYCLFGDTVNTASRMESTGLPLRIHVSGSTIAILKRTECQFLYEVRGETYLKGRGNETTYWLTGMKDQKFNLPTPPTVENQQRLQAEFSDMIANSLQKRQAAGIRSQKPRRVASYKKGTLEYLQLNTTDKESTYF

A word on the EC50: it is the concentration that produces a half-maximal response. Regarding `CC[C@H](C)[C@@H]1NC(=O)[C@H](CCC(=O)O)NC(=O)[C@@H](NC(=O)[C@@H](NC(=O)[C@H](CC(N)=O)NC(=O)[C@@H]2CCCN2)[C@@H](C)O)CSSC[C@@H]2NC(=O)[C@H](C)NC(=O)[C@H](C)NC(=O)[C@H](Cc3ccc(O)cc3)NC(=O)[C@H](C)NC(=O)[C@H](CSSC[C@@H](C(N)=O)NC(=O)CNC(=O)[C@H]([C@@H](C)O)NC2=O)NC1=O` [Compound 1, Mouse-Guanylin-NH2, H-PNTC*EICAYAAC*TGC-NH2 (double oxidised C to C and C* to C*)] (H-PNTCEICAYAACTGC-NH2; disulfide 4-12, 7-15), the “otoacoustic emission at 14 to 16 kHz” value in assay [1] (8 nmol/kg/h intraperitoneally for 14 days via Alzet osmotic pumps) was “significant decrease”. Moreover, in assay [1] (14 days, most pronounced at the 14 kHz level), the “change in otoacoustic emission from before to after treatment (2-way ANOVA)” value is “significant decrease”. Besides, in assay [2] (read-out: EC50), the EC50 stood at 6.1 µM.

Regarding `CC[C@H](C)[C@@H]1NC(=O)[C@H](CCC(=O)O)NC(=O)[C@@H](NC(=O)[C@@H](N)[C@@H](C)O)CSSC[C@@H]2NC(=O)[C@H](C)NC(=O)[C@H](C)NC(=O)[C@H](Cc3ccccc3)NC(=O)[C@H](C)NC(=O)[C@H](CSSC[C@@H](C(=O)N[C@@H](CC(C)C)C(N)=O)NC(=O)CNC(=O)[C@H]([C@@H](C)O)NC2=O)NC1=O` [Compound 5, des-Pro^1, des-Asn^2[Phe^9]Guanylin-L-NH2 (rat/mouse)] (H-TCEICAFAACTGCL-NH2; disulfide 2-10, 5-13 (inferred)), the EC50 in assay [2] (read-out: EC50) was 28 µM.

Turning to `CC[C@H](C)[C@@H]1NC(=O)[C@H](CCC(=O)O)NC(=O)[C@@H](NC(=O)[C@@H](N)[C@@H](C)O)CSSC[C@@H]2NC(=O)[C@H](C)NC(=O)[C@H](C)NC(=O)[C@H](Cc3ccc4ccccc4c3)NC(=O)[C@H](C)NC(=O)[C@H](CSSC[C@@H](C(=O)N[C@@H](CC(C)C)C(N)=O)NC(=O)CNC(=O)[C@H]([C@@H](C)O)NC2=O)NC1=O` [Compound 6, des-Pro^1, des-Asn^2[2-Nal^9]Guanylin-L-NH2 (rat/mouse)] (H-TCEICA[2Nal]AACTGCL-NH2; disulfide 2-10, 5-13), the EC50 in assay [2] (read-out: EC50) was over 100 µM.

`CC[C@H](C)[C@@H]1NC(=O)[C@H](CCC(=O)O)NC(=O)[C@@H](NC(=O)[C@@H](N)[C@@H](C)O)CSSC[C@@H]2NC(=O)[C@H](C)NC(=O)[C@H](C)NC(=O)[C@H](Cc3ccc(O)cc3)NC(=O)[C@H](C)NC(=O)[C@H](CSSC[C@@H](C(=O)N[C@@H](CC(C)C)C(=O)N[C@@H](CCCCN)C(=O)N[C@@H](CCCCN)C(N)=O)NC(=O)CNC(=O)[C@H]([C@@H](C)O)NC2=O)NC1=O` [Compound 8, des-Pro^1, des-Asn^2Guanylin-LKK-NH2 fully oxidised(1-3, 2-4) (rat/mouse): H-TCEICAYAACTGCLKK-NH2 oxidised(1-3, 2-4)] (H-TCEICAYAACTGCLKK-NH2; disulfide 2-10, 5-13): in assay [2] (read-out: EC50), the EC50 stood at 29 µM.

Regarding “Cyclo(Gly-Glu-Ile-Gly-Ala-Tyr-Ala-Ala-Gly-Thr-Gly-Gln-) (GEIGAYAAGTGQ; cyclic; printed: Gly-Glu-Ile-Gly-Ala-Tyr-Ala-Ala-Gly-Thr-Gly-Gln-) [Compound 4]”, in assay [2], the EC50 entry was “No effect”.

As to “Guanylin-Asp-Lys6-NH2 (rat/mouse) [Compound 12]”, in assay [2], the “agonist character at GC-C” value is reported as “potent agonist”.

Regarding Mouse-Guanylin-Asp-OH [Compound 13], in assay [3] (conscious rats, 10 μmol/kg i.v.), the “effect on heart rate” value is “no effect”. Besides, the “increase in mean arterial blood pressure” value in assay [3] (conscious rats, 10 μmol/kg i.v. bolus, immediate and sustained) is given as 15-20 mmHg. Moreover, in assay [3] (rats, 10 μmol/kg i.v.), the “effect on urinary potassium excretion rate” value is “rapid and transient increase”; the “effect on urinary sodium excretion rate” value was “immediate and sustained increase”; the “effect on urine flow rate” value is “rapid and transient increase”.

Regarding “SPNFIWK [Compound 3, H-Ser-Pro-Asn-Phe-Ile-Trp-Lys—NH2]”, the EC50 result in assay [2] was “No effect”.

With “des-Pro^1, des-Asn^2Guanylin-LKK-NH2 mono oxidised(1-3) (rat/mouse) [Compound 7]”, in assay [2], the EC50 result is recorded as “No effect”.

As for “guanylin (PGTCEICAYAACTGC; ends and bridges not checked; cysteine pairing not given here; UniProt Q02747 101-115, looked up)”, the “increase in cGMP production reported” value in assay [4] is on record as 300 fold. The “diuretic, natriuretic and kaliuretic effect” value in assay [5] is “substantial diuretic, natriuretic and kaliuretic effect”.

Take “uroguanylin (NDDCELCVNVACTGCL; ends and bridges not checked; cysteine pairing not given here; UniProt Q16661 97-112, looked up) [synthetic uroguanylin, member of the guanylin peptide family]”: the “increase in cGMP production reported” value in assay [4] is given as 300 fold.
